Assay results from patent US20250134884A1, “METHOD AND PHARMACEUTICAL COMPOSITION FOR TREATING TYPE II DIABETES” (LUMISTAR BIOTECHNOLOGY, INC., priority 2023, published 2025).

What was measured:
MIN6 cells [1] = experiment: Single cell Ca2+ flux monitoring with K-GECO1 reporter; assay type: cell-based, mouse; conditions: 20 mM glucose and 25 μM WAY-100635 Maleate, FIG. 3C
Description: One component of the reporter construct is a red fluorescent protein (RFP)-based Ca^2+ indicator (i.e., K-GECO1, reporter with an affinity for calcium ion) that is expressed within the cytoplasm. In this example, an inverted microscope (D1, Zeiss) equipped with a 63 Å˜objective lens (NA 1.4, Zeiss) and a multiwavelength LED light source (pE-4000, CoolLED) will be used. Blue (470 nm) and green (550 nm) excitation will be used to illuminate ChR2-EYFP and K-GECO1, respectively. The green fluorescent protein (GFP) filter set, and the red fluorescent protein (RFP) filter set will be used to confirm the expression of ChR2-EYFP and K-GECO1 in cells. […]
This allowed the detection of Ca^2+ influx into β cell as a consequence of calcium channel opening. β cells expressing the reporter construct were first stimulated with glucose (e.g., 20 mM glucose) to establish a baseline profile of Ca^2+ influx over time. […] FIG. 3A is the fluorescence intensity graph using the K-GECO1 reporter gene in Min6 cells to monitor glucose stimulation; and FIG. 3B is a representative image using the K-GECO1 reporter gene in Min6 cells after glucose stimulation. In FIG. 3A, the horizontal axis represents time (minutes), the vertical axis represents fluorescence intensity, and an arrow represents the point of stimulation and lines represent individual cells. […]

MIN6 cells [2] = experiment: Insulin secretion by hINS-GLuc luciferase reporter in MIN6 β cells under high glucose; assay type: cell-based, mouse; conditions: 20 mM glucose; for insulin secretion compared to the DMSO control group (luminescence signals from secreted insulin): MIN6 cells, FIG. 4; for position among the top five compounds with significant increase in insulin secretion relative to high glucose stimulation: Table 2
Method: With the inclusion of a luciferase-tagged insulin construct, hINS-GLuc allows for rapid quantification of secreted insulin in the supernatant for drug screening, unlike the traditional method of measuring insulin via ELISA. This quantification is achieved by measuring the luminescence (relative light units, RLU) upon adding the luciferin of coelenterazine.
For measuring insulin secretion, the medium will first be removed, and MIN6 cells will then be rinsed in Krebs-Ringer buffer (119 mM NaCl, 4.74 mM KCl, 2.54 mM CaCl2), 1.19 mM MgSO4, 1.19 mM KH2PO4, 25 mM NaHCO3, 10 mM Hepes, and 0.1% BSA, pH 7.4) before incubation with or without 20 mM glucose in Krebs-Ringer buffer. Compounds will be added at a final concentration of 25 μM for two hours. At the end of the incubation period, the buffer will be removed, and the cells will then be briefly centrifuged, with the supernatant collected for measuring insulin secretion. Measurement of insulin secretion and C-peptide release will be performed using either an insulin or C-peptide ELISA kit (FIG. 1A), according to the manufacturer's instructions (Mercodia), or by measuring luminescence after adding luciferin (FIGS. 2A, 2B, and 4).
With the establishment of reporter platform in β cell lines, 50 drugs screening with compounds associated with pathways associated with metabolic diseases are conducted. This included inhibitor or agonist against Glucagon-like peptide-1 (GLP-1), Cytochrome c oxidase (COX), Phosphodiesterase (PDE), AMP activated protein kinase (AMPK), dipeptidyl peptidase-4 (DPP-4), calcium and potassium channels, 5-hydroxytryptamine (5-HT) or estrogen/progestogen receptors. As compounds can either “trigger” insulin secretion (i.e., in low glucose condition) or “amplify” insulin secretion (i.e., in high glucose condition). To mimic hyperglycemic condition, the compounds that may amplify insulin secretion under high glucose conditions have been chosen.
To enable this screen, we adapted a 96 well format with β cells plated 74 hours prior to compound challenge in triplicates. Post-stimulation, supernatant was aliquoted and transferred into at least 2 empty plates for either storage or luciferase measurement with the addition of coelenterazine.
FIG. 4 is a relative light unit graph depicting the ability of various 5-HT1A receptor antagonists to induce insulin secretion in MIN6 cells in the presence of a high concentration of glucose.

Compound | Ca2+ influx profile (K-GECO1 fluorescence intensity) (MIN6 cells [1]) | insulin secretion compared to the DMSO control group (luminescence signals from secreted insulin) (MIN6 cells [2]) | insulin secretion relative to high glucose stimulation alone (luminescence, RLU) (MIN6 cells [2]; compound 25 μM, two hours, reporter expressing β cells, FIG. 2A) | position among the top five compounds with significant increase in insulin secretion relative to high glucose stimulation (MIN6 cells [2]; compound 25 μM, two hours)
COc1ccccc1N1CCN(CCN(C(=O)C2CCCCC2)c2ccccn2)CC1.O=C(O)/C=C\C(=O)O [WAY-100635 maleate] | significant change in Ca^2+ influx profile | significantly increased | promotes insulin secretion | 3
CCC(=O)c1c(O)cc(O)cc1O [Flopropione] | – | did not show a significant increase | – | –
Exendin-4 | – | – | – | 1
Cc1[nH]c(=O)c(C#N)cc1-c1ccncc1 [Milrinone] | – | – | – | 5
CC(C)Cn1c(=O)n(C)c(=O)c2[nH]cnc21 [IBMX] | – | – | – | 4
O=c1c(O)c(-c2ccc(O)cc2)oc2cc(O)cc(O)c12 [Kaempferol] | – | – | – | 2
C[C@H](CN(C(=O)c1ccc(C#N)cc1)c1ccccn1)N1CCN(c2cccc3c2OCCO3)CC1 [Lecozotan] | – | did not show a significant increase | – | –
